Experimental data from paper PMC11640973, “The Detection of Toxic Amyloid-β Fibril Fragments Through a Surface Plasmon Resonance Immunoassay” (International Journal of Molecular Sciences, 2024).
Each block holds one compound with its values, some of them ahead of it.

Legend:
[1] = Aβ42 compared to Aβ40; ref [35]; cited from earlier work
Description: The lyophilized powder obtained from the synthesis and purification was suspended in 0.02% Trifluoracetic acid (TFA). The final pH of the solution was 2.8, ensuring the stability of the depsi bond and preventing premature conversion to the native peptide. The concentration was measured using UV ...

anti-Aβ antibody 4G8 = assay: SPR immunoassay of Aβ42 binding to immobilized anti-Aβ antibody 4G8
Description: This binding profile resembles closely that described previously for a solution containing monomers only. […]
For the present work, we used both the ProteOn™ XPR36 Protein Interaction Array system (Bio-Rad Laboratories, Hercules, CA, USA) and the Sierra SPR®-32 Pro (Bruker, Billerica, MA, USA). The ProteOn™ XPR36 allows for the preparation of six parallel lanes, each representing a different surface on a single chip, with, for instance, five lanes used for ligand (target) immobilization and one designated as a reference. By rotating the chip, each ligand surface can interact with up to six analytes, enabling the simultaneous analysis of up to 36 unique interactions in a single run. The Sierra SPR®-32 Pro is configured with 8 separate channels, each containing four detection spots, one of which serves as a reference spot, enabling analysis with up to 8 samples per run.
The anti-Aβ antibody 4G8 (Signet Laboratories, Emeryville, CA, USA) was immobilized on a CMD50L sensor chip (XanTec bioanalytics, Düsseldorf, Germany) using standard amine coupling chemistry, following standard protocols. A solution of 30 µg/mL 4G8 antibody in 20 mM acetate buffer pH 5.0 was injected for immobilization.
To monitor the aggregation of Aβ42 over time, we followed the general protocol described above. Briefly, Aβ42 was prepared at a final concentration of 50 µM in PBS and incubated at 37 °C. Samples were collected at various time points (0, 6, and 120 h) to capture distinct aggregated forms corresponding to monomers, oligomers/small fibrils, and fibrils. […] The signal from the 4G8-immobilized surface was corrected by subtracting the nonspecific response observed on the empty parallel reference surface.

[2] = stock solution in 50 mM NaOH (1 mg/mL), −80 °C; ref [38]; cited from earlier work
Description: To further validate our results, we used native forms of Aβ42. Lyophilized recombinant Aβ42 (rPepride) and the synthetic Aβ42 (Bachem) were suspended in a 50 mM NaOH solution (1 mg/mL) following the protocol of Taylor et al., which provides a simple and reliable method for the high-yield preparation of seedless Aβ monomers. […] This validated approach reduces handling variability and ensures reproducibility in experiments.

SHSY-5Y cells = assay: MTT toxicity assay on SHSY-5Y cells; assay type: cell-based; conditions: 24 h; for cell viability (of control): 10 nM, 95%CI fibrils 67.3–76.0%, fragmented 39.6–48.0%; for cell viability (of control) / cell viability (of controls): Bachem Aβ42, fibrils from 48 h at 37 °C, three sessions each in triplicate; for cell viability (of controls): 30 nM, 95%CI fibrils 52.1–57.3, fragmented 39.7–45.71%; for cell viability versus vehicle control cells: 10 to 100 nM, fibrils ± sonication, p < 0.01, one-way ANOVA; for toxic effect (cell viability): Bachem Aβ42, 10 to 100 nM
Description: SHSY-5Y cell survival was assessed using the MTT colorimetric assay after exposure to Aβ species—including monomers (t = 0), fibrils, and sonicated fibrils (48 h)—prepared and incubated at a concentration of 100 µM for aggregation. As described in the sample preparation chapter, cells were exposed to these Aβ species at final concentrations of 10, 30, and 100 nM for 24 h. Following exposure, cells were incubated with a culture medium (100 µL/well) containing a 1:10 dilution of Thiazolyl blue tetrazolium bromide (MTT; 4 mg dissolved in 1 mL DPBS). The plates were then placed in the incubator for 3 h. At the end of the incubation, the medium containing MTT was replaced with HCl-Isopropanol (1N HCl diluted 1:25 in 100% isopropanol). The absorbance of the colored solution was measured at 540 nm using a microplate spectrophotometer (F500 Infinity, Tecan, Männedorf, Switzerland).
Statistical calculations were performed using GraphPad Prism (version 9.4; GraphPad Software, Bethesda, MD, USA). Paired t-tests were used to analyze differences between experimental conditions (e.g., Figure 3), while one-way ANOVA followed by Tukey’s post hoc test was applied for multiple group comparisons (e.g., Figure 4). The data are presented as mean ± standard deviation (SD). The statistical significance was defined as p < 0.05.

[3] = SPR-based approach; ref [21]; cited from earlier work
Description: In order to reliably detect transient oligomeric species in a mixture of aggregated species without sample manipulation, an immunoassay based on surface plasmon resonance (SPR) has been proposed. This method exploits the properties of an anti-Aβ antibody (4G8) for a direct and simultaneous determination of monomers and biologically relevant (i.e., toxic) transient oligomeric species, also distinguishing the latter from large fibrils. SPR is a highly quantitative technique for measuring binding kinetics and determining monomer concentrations. However, in the context of aggregation assays ...

[4] = incubated 5 days, then one freeze–thaw cycle
[5] = freshly prepared Aβ42 (t = 0), 5 µM
[6] = freshly prepared Aβ42 (t = 0), 5 µM in PBST (0.005% Tween), flowed over immobilized 4G8

Compound: Aβ40: Aβ1–40, fragment of Amyloid Precursor Protein [reference compound]
- aggregation propensity [1]: aggregates more slowly

- dissociation of most of the binding signal (anti-Aβ antibody 4G8; 50 µM in PBS incubated 6 h at 37 °C, diluted to 5 µM, 15 min dissociation phase): very slow dissociation
- decrease in the monomer signal (anti-Aβ antibody 4G8; 6 h of aggregation, 50 µM in PBS, 37 °C): 56%
- time to complete dissociation of signal (anti-Aβ antibody 4G8; incubated 5 days at 37 °C (residual monomers)): ≤ 15 min
- SPR signals (anti-Aβ antibody 4G8; [4]): marked increase in the SPR signals
- absolute amount of monomers (anti-Aβ antibody 4G8; [4]): decreased
Compound: Amyloid-β1–42 [Aβ42]
- SPR binding signal on immobilized 4G8 (anti-Aβ antibody 4G8; 50 µM in PBS incubated 6 h at 37 °C, diluted to 5 µM, versus t = 0): marked increase in the SPR binding signal
- oligomer-dependent SPR signal (slow dissociation) (anti-Aβ antibody 4G8; fragmentation by freeze–thaw or sonication, eight independent experiments, rPeptide, Bachem or depsi-peptide Aβ42, Proteon or Bruker, p = 0.0012 paired t-test): fragmentation-induced increase in SPR-detected Aβ42 oligomers
- SPR signal (anti-Aβ antibody 4G8; incubated 5 days at 37 °C, versus 6 h and freshly prepared): much lower SPR signal compared to the solution incubated for 6 h (Figure 2c), and even lower than that of the freshly prepared solution
- aggregation propensity [1]: higher aggregation propensity
- stability of monomeric state [2]: at least 40 days

Compound: fibrils: Aβ42 purchased from Bachem, fibrils obtained after 48 h incubation at 37 °C
- cell viability (of control) (SHSY-5Y cells; MTT): 71.6%
- cell viability (of controls) (SHSY-5Y cells; MTT): 54.73%
- cell viability versus vehicle control cells (SHSY-5Y cells): significantly different from the viability of control cells
- toxic effect (cell viability) (SHSY-5Y cells; MTT): concentration-dependent toxicity

Compound: sonicated fibrils: Aβ42 fibrils produced by tip sonication (1 min 10% power 30% cycles)
- cell viability (of control) (SHSY-5Y cells; MTT): 43.8%
- cell viability (of controls) (SHSY-5Y cells; MTT): 42.7%
- cell viability versus vehicle control cells (SHSY-5Y cells): significantly different from the viability of control cells
- fibril toxicity, change by fragmentation (SHSY-5Y cells; sonicated versus unfragmented fibrils, 10 and 30 nM, MTT): significantly increased by fragmentation

- KD (calculated from the ratio koff/kon) (anti-Aβ antibody 4G8; Aβ42 monomer binding to immobilized 4G8, t = 0): about 140 nM
- time to complete dissociation (anti-Aβ antibody 4G8; [5]): ≤ 15 min
- time to saturation of SPR binding signal (anti-Aβ antibody 4G8; [5]): ≈ 1 min
- koff (anti-Aβ antibody 4G8; [6]): 0.0044 s⁻¹
- kon (anti-Aβ antibody 4G8; [6]): 31000 M⁻¹ s⁻¹
Compound: Aβ42 monomer: freshly prepared Aβ42 solution (t = 0), containing monomers only
- toxic effect (cell viability) (SHSY-5Y cells; MTT): rule out any toxic effect

Compound: O=C(O[C@@H]1Cc2c(O)cc(O)cc2O[C@@H]1c1cc(O)c(O)c(O)c1)c1cc(O)c(O)c(O)c1 [epigallocatechin gallate]
- effect on formation of Aβ42 oligomers [3]: inhibited

- recognition of fibrillar macroaggregates by SPR (anti-Aβ antibody 4G8; incubated 5 days at 37 °C): not recognized by SPR
Compound: fibrillar macroaggregates: Aβ42 incubated 5 days, larger suprafibrillar macroaggregates
